Test results as given in patent US20070105864A1, “Methods for inhibiting protein kinases” (Schering Corporation, priority 2005, published 2007).
Like-named read-outs stand apart in the source and are kept apart here.

Key:
recombinant His-CHK1 = molecular target: T1, recombinant His-CHK1 (Homo sapiens, UniProt O14757); test: CHK1 SPA Assay; assay type: biochemical; details: read-out: CHK-1 IC50
T1 construct: His-CHK1, In House Lot P976, MW ˜30 KDa, stored at −80 °C; fused on or other part: His tag
T1 sequence (O14757 1-265 limits assumed): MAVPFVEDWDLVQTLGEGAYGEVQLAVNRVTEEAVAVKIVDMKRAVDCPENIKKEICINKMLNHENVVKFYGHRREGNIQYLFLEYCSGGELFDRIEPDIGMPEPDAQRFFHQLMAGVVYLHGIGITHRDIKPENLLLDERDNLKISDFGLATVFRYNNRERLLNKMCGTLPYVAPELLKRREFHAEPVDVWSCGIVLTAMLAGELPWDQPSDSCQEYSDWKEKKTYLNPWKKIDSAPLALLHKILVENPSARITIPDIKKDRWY
Description: An in vitro assay was developed that utilizes recombinant His-CHK1 expressed in the baculovirus expression system as an enzyme source and a biotinylated peptide based on CDC25C as substrate (biotin-[…]).
1) CDC25C Ser 216 C-term Biotinylated peptide substrate (25 mg), stored at −20 °C, Custom Synthesis by Research Genetics: biotin-[…] 2595.4 MW
2) His-CHK1 In House lot P976, 235 ug/mL, stored at −80 °C.
1) Kinase Buffer: 50 mM Tris pH 8.0; 10 mM MgCl2; 1 mM DTT
2) His-CHK1, In House Lot P976, MW ˜30 KDa, stored at −80 °C. […] For 1 plate (100 r×n): dilute 8 μL of 235 μg/mL (7.83 uM) stock in 2 mL Kinase Buffer. This makes a 31 nM mixture. Add 20 μL/well. This makes a final reaction concentration of 6 nM.
3) CDC25C Biotinylated peptide.
Dilute CDC25C to 1 mg/mL (385 uM) stock and store at −20° C. For 1 plate (100 r×n): dilute 10 1L of 1 mg/mL peptide stock in 2 ml Kinase Buffer. This gives a 1.925 μM mix. Add 20 1L/r×n. This makes a final reaction concentration of 385 nM.
For 1 plate (100 r×n): dilute 10 μL of 1 mM ATP (cold) stock and 2 uL fresh P33-ATP (20 μCi) in 5 ml Kinase Buffer. This gives a 2 μM ATP (cold) solution; add 50 μl/well to start the reaction. Final volume is 100 μl/r×n so the final reaction concentrations will be 1 μM ATP (cold) and 0.2 uCi/r×n.
For 1 plate add: To 10 mL Wash Buffer 2 (2M NaCl 1% H3PO4): 1 mL SPA bead slurry (50 mg); Add 100 μL/well
6) Wash buffer 1: 2 M NaCl
7) Wash buffer 2: 2 M NaCl, 1% H3PO4
Dispense 10 μl/r×n to appropriate wells. Add 10 μL 10% DMSO to positive (CHK1+CDC25C+ATP) and negative (CHK1+ATP only) control wells. 2) Thaw enzyme on ice—dilute enzyme to proper concentration in kinase buffer (see Reaction Mixtures) and dispense 20 μl to each well. 3) Thaw the Biotinylated substrate on ice and dilute in kinase buffer (see Reaction Mixtures). Add 20 μL/well except to negative control wells. Instead, add 20 uL Kinase Buffer to these wells. 4) Dilute ATP (cold) and P33-ATP in kinase buffer (see Reaction Mixtures). Add 50 μL/well to start the reaction. 5) Allow the reaction to run for 2 hours at room temperature. 6) Stop reaction by adding 100 uL of the SPA beads/stop solution (see Reaction Mixtures) and leave to incubate for 15 minutes before harvest 7) Place a blank Packard GF/B filter plate into the vacuum filter device (Packard plate harvester) and aspirate […] water through to wet the system. 8) Take out the blank and put in the Packard GF/B filter plate. 9) Aspirate the reaction through the filter plate. 10) Wash: 200 ml each wash; 1× with 2M NaCl; 1× with 2M NaCl/1% H3PO4 11) Allow filter plate to dry 15 min. 12) Put TopSeal-A adhesive on top of filter plate. 13) Run filter plate in Top Count
Settings: • Data mode: CPM • Radio nuclide: Manual SPA:P33 • Scintillator: Liq/plast • Energy Range: Low
(§1) IC50 DETERMINATIONS: Dose-response curves were plotted from inhibition data generated, each in duplicate, from 8 point serial dilutions of inhibitory compounds. Concentration of compound was plotted against % kinase activity, calculated by CPM of treated samples divided by CPM of untreated samples. To generate IC50 values, the dose-response curves were then fitted to a standard sigmoidal curve and IC50 values were derived by nonlinear regression analysis.

Cyclin E/CDK2 = molecular target: T2, Cyclin E/CDK2 (Homo sapiens, UniProt P24941); test: CDK2 Assay (Cyclin E/CDK2 in vitro kinase assay); assay type: biochemical
T2 construct: made in house; host or cells: SF9 cells (baculovirus co-infection)
From the text: BACULOVIRUS CONSTRUCTIONS: Cyclin E was cloned into pVL1393 (Pharmingen, La Jolla, Calif.) by PCR, with the addition of 5 histidine residues at the amino-terminal end to allow purification on nickel resin. The expressed protein was approximately 45 kDa. CDK2 was cloned into pVL1393 by PCR, with the addition of a haemaglutinin epitope tag at the carboxy-terminal end (YDVPDYAS). The expressed protein was approximately 34 kDa in size.
ENZYME PRODUCTION: Recombinant baculoviruses expressing cyclin E and CDK2 were co-infected into SF9 cells at an equal multiplicity of infection (MOI=5), for 48 hrs. Cells were harvested by centrifugation at 1000 RPM for 10 minutes, then pellets lysed on ice for 30 minutes in five times the pellet volume of lysis buffer containing 50 mM Tris pH 8.0, 1 50 mM NaCl, 1% NP40, 1 mM DTT and protease inhibitors (Roche Diagnostics GmbH, Mannheim, Germany). Lysates were spun down at 15000 RPM for 10 minutes and the supernatant retained. 5 ml of nickel beads (for one liter of SF9 cells) were washed three times in lysis buffer (Qiagen GmbH, Germany). Imidazole was added to the baculovirus supernatant to a final concentration of 20 mM, then incubated with the nickel beads for 45 minutes at 4° C. Proteins were eluted with lysis buffer containing 250 mM imidazole. Eluate was dialyzed overnight in 2 liters of kinase buffer containing 50 mM Tris pH 8.0, 1 mM DTT, 10 mM MgCl2, 100 uM sodium orthovanadate and 20% glycerol. Enzyme was stored in aliquots at −70° C.
IN VITRO KINASE ASSAY: Cyclin E/CDK2 kinase assays were performed in low protein binding 96-well plates (Corning Inc, Corning, N.Y.). Enzyme was diluted to a final concentration of 50 μg/ml in kinase buffer containing 50 mM Tris pH 8.0, 10 mM MgCl2, 1 mM DTT, and 0.1 mM sodium orthovanadate. The substrate used in these reactions was a biotinylated peptide derived from Histone H1 (from Amersham, UK). The substrate was thawed on ice and diluted to 2 μM in kinase buffer. Compounds were diluted in 10% DMSO to desirable concentrations. For each kinase reaction, 20 μl of the 50 µg/ml enzyme solution (1 μg of enzyme) and 20 μl of the 2 μM substrate solution were mixed, then combined with 10 μl of diluted compound in each well for testing. The kinase reaction was started by addition of 50 μl of 2 μM ATP and 0.1 μCi of 33P-ATP (from Amersham, UK). The reaction was allowed to run for 1 hour at room temperature. The reaction was stopped by adding 200 μl of stop buffer containing 0.1% Triton X-100, 1 mM ATP, 5 mM EDTA, and 5 mg/ml streptavidine coated SPA beads (from Amersham, UK) for 15 minutes. The SPA beads were then captured onto a 96-well GF/B filter plate (Packard/Perkin Elmer Life Sciences) using a Filtermate universal harvester (Packard/Perkin Elmer Life Sciences.). Non-specific signals were eliminated by washing the beads twice with 2M NaCl then twice with 2 M NaCl with 1% phosphoric acid. The radioactive signal was then measured using a TopCount 96 well liquid scintillation counter (from Packard/Perkin Elmer Life Sciences).
as §1

Row | SMILES | IC50 (recombinant His-CHK1) | IC50 (Cyclin E/CDK2; read-out: CDK2 IC50) | IC50 (Cyclin E/CDK2; CDK2 IC50)
1 | Cn1cc(-c2cnc3c(Nc4ccc5ncccc5c4)nccn23)cn1 | 492 nM | – | –
2 | Cc1cc(Nc2nccn3c(-c4cnn(C)c4)cnc23)sn1 | 54 nM | – | –
3 | CNCCc1cn2c(-c3cnn(C)c3)cnc2c(Nc2cc(C)ns2)n1 | 13 nM | 11400 nM | –
4 | Cc1cc(Nc2nc(CCN)cn3c(-c4cnn(C)c4)cnc23)sn1 | 7 nM | 5940 nM | –
5 | Cn1cc(-c2cnc3c(Nc4cc(C5CCNCC5)ns4)nccn23)cn1 | 31 nM | 18100 nM | –
6 | Cn1cc(-c2cnc3c(Nc4ccc(-n5ccnc5)cc4)nc(C4=CCNCC4)cn23)cn1 | 181 nM | – | 19400 nM
7 | Cc1cc(Nc2nc(C3=CCCNC3)cn3c(-c4cnn(C)c4)cnc23)sn1 | 14 nM | 11000 nM | –
8 | Cc1cc(Nc2nc(C3CCCNC3)cn3c(-c4cnn(C)c4)cnc23)sn1 (stereo not shown) | 13 nM | 1100 nM | –
9 | Cn1cc(-c2cnc3c(Nc4sncc4C4CCCNC4)nccn23)cn1 (stereo not shown) | 18 nM | 21800 nM | –
10 | Cn1cc(-c2cnc3c(Nc4sncc4C4CCNC4)nccn23)cn1 (stereo not shown) | 23 nM | – | –
11 | Cc1cnsc1Nc1nc(CCCN)cn2c(-c3cnn(C)c3)cnc12 | 5 nM | 1910 nM | –
12 | CNCCCc1cn2c(-c3cnn(C)c3)cnc2c(Nc2sncc2C)n1 | 8 nM | 5770 nM | –
13 | Cn1cc(-c2cnc3c(Nc4sncc4C4CCN(S(C)(=O)=O)C4)nc(CCCN)cn23)cn1 (stereo not shown) | 8 nM | – | –
14 | Cc1cc(Nc2nc(C3=CCCNC3)cn3c(-c4cnn(C)c4)cnc23)sc1S(=O)(=O)N(C)C | 7 nM | 5200 nM | –
15 | CC(C)c1cnsc1Nc1nc(CCN)cn2c(-c3cnn(C)c3)cnc12 | 6380 nM | 13 nM | –
16 | Cn1cc(-c2cnc3c(Nc4sncc4C(C)(C)C)nc(C4=CCCNC4)cn23)cn1 | 16 nM | 13700 nM | –
17 | CC(C)c1cnsc1Nc1nc(C2=CCCNC2)cn2c(-c3cnn(C)c3)cnc12 | 6 nM | 4210 nM | –
18 | Cc1cc(Nc2nc(C3=CCCNC3)cn3c(-c4cnn(C)c4)cnc23)sc1C(=O)N(C)C | 16 nM | 24100 nM | –
19 | Cc1cc(Nc2nc(C3=CCCNC3)cn3c(-c4cnn(C)c4)cnc23)sc1C(N)=O | 23 nM | 16200 nM | –
20 | Cn1cc(-c2cnc3c(Nc4sncc4C(C)(C)C)nc(CCN)cn23)cn1 | 11 nM | 14100 nM | –

Row | SMILES | IC50 (recombinant His-CHK1) | IC50 (Cyclin E/CDK2; read-out: CDK2 IC50) | IC50 (Cyclin E/CDK2; CDK2 IC50)
21 | Cc1cc(Nc2nc(CCN)cn3c(-c4cnn(C)c4)cnc23)sc1C(N)=O | 19 nM | 17900 nM | –
22 | CCNC(=O)c1sc(Nc2nc(CCN)cn3c(-c4cnn(C)c4)cnc23)cc1C | 15 nM | 41300 nM | –
23 | Cc1cc(Nc2nc(C3=CCCNC3)cn3c(-c4cnn(C)c4)cnc23)sc1C(=O)NC1CCN(S(C)(=O)=O)CC1 | 24 nM | 41000 nM | –
24 | CCNC(=O)c1sc(Nc2nc(C3=CCCNC3)cn3c(-c4cnn(C)c4)cnc23)cc1C | 15 nM | – | –
25 | Cn1cc(-c2cnc3c(Nc4ccns4)nc(CN)cn23)cn1 | 17 nM | 550 nM | –
26 | CCN(CC)S(=O)(=O)c1sc(Nc2nc(C3=CCCNC3)cn3c(-c4cnn(C)c4)cnc23)cc1C | 19 nM | 18300 nM | –
27 | Cc1cc(Nc2nc(C3=CCCNC3)cn3c(-c4cnn(C)c4)cnc23)sc1S(=O)(=O)N1CCOCC1 | 7 nM | 5950 nM | –
28 | Cc1cc(Nc2nc(C3=CCCNC3)cn3c(-c4cnn(C)c4)cnc23)sc1S(=O)(=O)N1CCCC1 | 6 nM | 5170 nM | –
29 | Cc1cc(Nc2nc(C3=CCCNC3)cn3c(-c4cnn(C)c4)cnc23)sc1S(=O)(=O)NCC1CC1 | 8 nM | 2140 nM | –
30 | Cc1cc(Nc2nc(C3=CCCNC3)cn3c(-c4cnn(C)c4)cnc23)sc1S(=O)(=O)C(C)C | 5 nM | 4790 nM | –
31 | Cc1cc(Nc2nc(C3=CCCNC3)cn3c(-c4cnn(C)c4)cnc23)sc1S(C)(=O)=O | 8 nM | 11600 nM | –
32 | CCNS(=O)(=O)c1sc(Nc2nc(C3=CCCNC3)cn3c(-c4cnn(C)c4)cnc23)cc1C | 10 nM | – | –
33 | Cc1cc(Nc2nc(C3=CCCNC3)cn3c(-c4cnn(C)c4)cnc23)sc1S(=O)(=O)NCCO | 6 nM | 4680 nM | –
34 | Cc1cc(Nc2nc(C3=CCCNC3)cn3c(-c4cnn(C)c4)cnc23)sc1-c1cnn(C)c1 | 19 nM | 4590 nM | –
35 | Cc1cc(Nc2nc(CCN)cn3c(-c4cnn(C)c4)cnc23)sc1S(=O)(=O)N(C)C | 14 nM | – | –
36 | Cc1cc(Nc2nc(CCNCC3CC3)cn3c(-c4cnn(C)c4)cnc23)sc1S(=O)(=O)N(C)C | 10 nM | – | –
37 | Cc1cc(Nc2nc(C3CCCNC3)cn3c(-c4cnn(C)c4)cnc23)sc1S(=O)(=O)N(C)C (stereo not shown) | 12 nM | – | –
38 | Cc1cc(Nc2nc(SC3CCNC3)cn3c(-c4cnn(C)c4)cnc23)sn1 (stereo not shown) | 19 nM | – | –
39 | Cc1cc(Nc2nc(C3=CCCNC3)cn3c(-c4cnn(C)c4)cnc23)sc1S(=O)(=O)N1CCC1 | 12 nM | – | –
